From EP4509497A1, “METHOD FOR PRODUCING ACETYLSALICYLIC ACID NICOTINAMIDE COCRYSTALS AND ACETYLSALICYLIC ACID NICOTINAMIDE COCRYSTALS WITH IMPROVED SOLUBILITY” (Ruhr-Universität Bochum, priority 2023, dated 2025)
In brackets after ≈: the same amount, converted by molar mass.

Experiment: Solubility determination (gravimetric, saturated aqueous samples)
Assay type: physicochemical
Method: Es wurden 15 mL gesättigter wässriger Proben mit Niederschlag in 20 mL-Fläschchen mit dem Acetylsalicylsäure-Nicotinsäureamid-Co-Kristall (1:1), ASS und NIC angesetzt. Die Proben wurden bei Raumtemperatur mit einem Magnetrührer homogenisiert. Nach 1 h und 2 h werden von jeder Probe 4-mal ca. 1 mL Lösung entnommen (4-fach Bestimmung) und durch ein Vorspritzfilter in ein leeres 4 mL Fläschchen überführt. Die Fläschchen werden dann bis zur Verdampfung des Lösemittels offen stehengelassen. Die Fläschchen wurden leer, mit der gesättigten Lösung und nach dem Verdampfen gewogen. Die Löslichkeit in Masseprozent ergibt sich über die Differenz aus Gewicht nach dem Verdampfen und dem Leegewicht.

Row | Compound | ASS-Löslichkeit gesteigert um einen Faktor (ASS in co-crystal (ASS:NA 1:1) versus pure ASS, Fig. 7, after 1 h) | Löslichkeit Nach 1 h (water, 1 h) | Löslichkeit Nach 1 h (ASS im Co-Kristall) (water, 1 h) | Löslichkeit Nach 2 h (water, 2 h) | Löslichkeit Nach 2 h (ASS im Co-Kristall) (water, 2 h) | solubility thermodynamic at 1 h (water) | solubility thermodynamic at 2 h (water)
1 | Acetylsalicylsäure-Nicotinsäureamid-Co-Kristall | ca. 2,5 | 1,768 ω % | 1,054 ω % | 1,777 ω % | 1,059 ω % |  | 
2 | CC(=O)Oc1ccccc1C(=O)O [Acetylsalicylsäure, 2-Acetoxybenzoesäure, reference compound] |  |  |  |  |  | 4140 µg/mL (≈ 23 mM) | 4260 µg/mL (≈ 23.6 mM)
